This assay has as its system SARS-CoV-2 KOR-KCDC03-2020 strain. Put plainly: Prophylactic immunofluorescent infection assay in Vero E6 cells. The assay is classed as cell-based. Particulars: Severe acute respiratory syndrome coronavirus 2, compound added one hour prior to virus, MOI 0.0125, 24 hours.

The structures appear in SMILES notation.

In general, EC50 refers to the concentration needed to bring the measured effect to its halfway point. Higher therefore signals a less potent agent. The molecule `CCC(CC)COC(=O)[C@H](C)N[P@](=O)(OC[C@H]1O[C@@](C#N)(c2ccc3c(N)ncnn23)[C@H](O)[C@@H]1O)Oc1ccccc1` [Remdesivir, remdesivir] returned an EC50 of 12.9 µM.

For the origin of these results see patent publication US20230330180A1 (priority 2022, published 2023).
